Assay results published in paper PMC8296573, “Synthesis and Biological Evaluation of Fingolimod Derivatives as Antibacterial Agents” (ACS Omega, 2021).
Converted amounts (≈) assume the structure as drawn. Like-named read-outs stand apart in the source and are kept apart here.

Legend:
[1] = Cytotoxicity, resazurin staining assay; format: cell-based, human; conditions: human, 24 h incubation
Description: The cytotoxicity of the compounds was assessed on the three different human cell lines, A549, HEp-2, and HL-60, using the redox-based resazurin staining assay. The cells were seeded in clear 96-well plates at a density of 1 × 10^4 cells per well in a volume of 200 μL per well. The adherent cells were let to attach for 24 h before changing the media and adding the compounds (final concentration of 0.25% DMSO). HL-60 were counted and added to the plates at a density of 1 × 10^4 cells per well in a volume of 200 μL directly with the compounds. Untreated cells were used as negative controls, and cells treated with 1% TritonX-100 (Sigma-Aldrich, St. Louis, MO) were used as positive controls for cytotoxicity. The cells were incubated with the compounds for 24 h.
For the resazurin assay, the media was first removed, and the adherent cells were washed once with PBS. Then, 200 μL of 20 μM resazurin was added per well and cells were incubated for two more hours before the measurement of fluorescence, as mentioned earlier. For HL-60, 10 μL of 400 μM resazurin was added directly to the wells and the cells were incubated for an additional 4 h before the measurement of fluorescence.

S. aureus P2 = experiment: Antibacterial activity, pre-exposure; format: cell-based, Staphylococcus aureus; conditions: for Average inhibition %, biofilms viability / Average inhibition %, planktonic cells viability / inhibition at 5 µM / inhibition at 10 µM / inhibition at 15 µM / inhibition at 25 µM: S. aureus P2, pre-exposure, ± SD; for MIC / inhibition at 5 µM / inhibition at 10 µM / inhibition at 15 µM / inhibition at 25 µM: Staphylococcus aureus; for MIC: P2, pre-exposure, 18 h
Description: (§1) The antimicrobial activity was assessed in a similar way for the initial screening and the dose–response evaluation against different bacterial strains. With the exception of the post-exposure experiment, the compounds were added to the wells along with the bacteria to test the ability of compounds to prevent bacterial growth and biofilm formation (pre-exposure). The compounds were diluted in DMSO and plated directly in 96-well plates before adding the bacterial culture, and plates were incubated for 18 h under aerobic conditions at 37 °C with shaking (220 rpm). The antibacterial activity of the compounds was assessed on planktonic cells and biofilms separately using two different measurements for each: optical density (turbidity) and resazurin reduction (viability) on planktonic cells and resazurin followed by a crystal violet staining assay (total biomass) on biofilms, as described in the following sections.
(§2) The resazurin staining was performed according to the protocol previously optimized with a few modifications.[46] Briefly, the planktonic solution was first transferred into a new 96-well plate and the OD of the planktonic solution was measured using a Varioskan LUX Multimode microplate reader (Thermo Scientific, Vantaa, Finland). Then, 10 μL of a 400 μM resazurin (R7017, Sigma-Aldrich, St. Louis, MO) diluted in phosphate-buffered saline (PBS) (Thermo Fisher Scientific, MA) was added to the wells (for a final resazurin concentration of 20 μM). The plate was incubated in the dark with shaking (220 rpm) for about 3–10 min at room temperature with S. aureus and A. baumannii (until the bacteria controls turned pink) or for 20 min at 37 °C with P. aeruginosa. Fluorescence was measured at λex = 560 nm and λem = 590 nm using the top optics of the Varioskan LUX Multimode microplate reader. The planktonic plate was then discarded. The original challenge plate containing the biofilms was washed once with PBS, and 200 μL of a 20 μM resazurin solution was added to the wells. The plate was incubated in the dark at 37 °C with shaking (220 rpm) for 30 min with S. aureus, 60 min with A. baumannii, and 90 min with P. aeruginosa. Fluorescence was measured as described for the planktonic solution. The biofilms were next treated with crystal violet staining.
(§3) After removing the resazurin solution from the plate, biofilms were fixed with ethanol 100% for 15 min at room temperature. Ethanol was then removed, and the biofilms were left to air-dry completely at RT. Crystal violet, diluted to 1:100 in deionized water from the 2.3% commercial solution (HT90132, Sigma-Aldrich, St. Louis, MO), was added to the wells and, after a 5 min incubation with the dye, the biofilms were washed twice with deionized water and left to air-dry for about 10 min. The dye was solubilized in ethanol 100% for 1 h, and absorbance was measured at 595 nm using a Multiskan Sky microplate spectrophotometer (Thermo Scientific, Vantaa, Finland).

S. aureus ATCC 12598 = experiment: Antibacterial activity, pre-exposure; format: cell-based, Staphylococcus aureus; conditions: for Average inhibition %, biofilms viability / Average inhibition %, planktonic cells viability / inhibition at 5 µM / inhibition at 10 µM / inhibition at 15 µM / inhibition at 25 µM: S. aureus ATCC 12598, pre-exposure, ± SD; for inhibition at 5 µM / inhibition at 10 µM / inhibition at 15 µM / inhibition at 25 µM / MIC: Staphylococcus aureus, ATCC12598; for MIC: pre-exposure, 18 h, read-out: MIC S. aureus ATCC 12598
Description: as §1, §2, §3

[2] = 5 µM, read-out: Average inhibition %, biofilms biomass
[3] = 5 µM, read-out: Average inhibition %, planktonic cells turbidity
[4] = 10 µM, read-out: Average inhibition %, biofilms biomass
[5] = 10 µM, read-out: Average inhibition %, planktonic cells turbidity
[6] = 15 µM, read-out: Average inhibition %, biofilms biomass
[7] = 15 µM, read-out: Average inhibition %, planktonic cells turbidity
[8] = 25 µM, read-out: Average inhibition %, biofilms biomass
[9] = 25 µM, read-out: Average inhibition %, planktonic cells turbidity

SMILES: CCCCCCCCCCc1ccc(C(O)CC(N)(CO)CO)cc1 (centres unmarked) [Compound 55, 3-Amino-3-(hydroxymethyl)-1-(4-decylphenyl)butane-1,4-diol]
- CC50 at 24 h ([1]; A549 cells): 35.3 ± 5.1 µM
- CC50 at 24 h ([1]; HEp-2 cells): 33.9 ± 1.2 µM
- CC50 at 24 h ([1]; HL-60 cells): 7.4 ± 6.9 µM
- Average inhibition %, biofilms viability (S. aureus P2; 5 µM): 32.1 ± 8.5%
- Average inhibition %, planktonic cells viability (S. aureus P2; 5 µM): 3.4 ± 5.8%
- Average inhibition %, biofilms viability (S. aureus P2; 10 µM): 99.4 ± 0.2%
- Average inhibition %, planktonic cells viability (S. aureus P2; 10 µM): 99.8 ± 0%
- Average inhibition %, biofilms viability (S. aureus P2; 15 µM): 99.6 ± 0%
- Average inhibition %, planktonic cells viability (S. aureus P2; 15 µM): 99.6 ± 0.1%
- Average inhibition %, biofilms viability (S. aureus P2; 25 µM): 99.6 ± 0%
- Average inhibition %, planktonic cells viability (S. aureus P2; 25 µM): 99.5 ± 0.1%
- MIC (S. aureus P2): 10 µM (≈ 3.52 µg/mL)
- inhibition at 5 µM (S. aureus P2; [2]): 23.6 ± 10.9%
- inhibition at 5 µM (S. aureus P2; [3]): 14 ± 3%
- inhibition at 10 µM (S. aureus P2; [4]): 96.5 ± 0.7%
- inhibition at 10 µM (S. aureus P2; [5]): 99.6 ± 0.1%
- inhibition at 15 µM (S. aureus P2; [6]): 95.1 ± 0.2%
- inhibition at 15 µM (S. aureus P2; [7]): 99.3 ± 0.1%
- inhibition at 25 µM (S. aureus P2; [8]): 91.6 ± 1.2%
- inhibition at 25 µM (S. aureus P2; [9]): 98.8 ± 0.2%
- Average inhibition %, biofilms viability (S. aureus ATCC 12598; 5 µM): 15.2 ± 6.4%
- Average inhibition %, planktonic cells viability (S. aureus ATCC 12598; 5 µM): 7.6 ± 8.8%
- Average inhibition %, biofilms viability (S. aureus ATCC 12598; 10 µM): 99.2 ± 0.1%
- Average inhibition %, planktonic cells viability (S. aureus ATCC 12598; 10 µM): 99.8 ± 0%
- Average inhibition %, biofilms viability (S. aureus ATCC 12598; 15 µM): 99.5 ± 0.3%
- Average inhibition %, planktonic cells viability (S. aureus ATCC 12598; 15 µM): 99.7 ± 0%
- Average inhibition %, biofilms viability (S. aureus ATCC 12598; 25 µM): 99.6 ± 0%
- Average inhibition %, planktonic cells viability (S. aureus ATCC 12598; 25 µM): 99.6 ± 0.1%
- inhibition at 5 µM (S. aureus ATCC 12598; [2]): 27.6 ± 19.6%
- inhibition at 5 µM (S. aureus ATCC 12598; [3]): 21.2 ± 6.5%
- inhibition at 10 µM (S. aureus ATCC 12598; [4]): 94.3 ± 1.2%
- inhibition at 10 µM (S. aureus ATCC 12598; [5]): 99.6 ± 0.1%
- inhibition at 15 µM (S. aureus ATCC 12598; [6]): 93 ± 1.1%
- inhibition at 15 µM (S. aureus ATCC 12598; [7]): 99.4 ± 0.2%
- inhibition at 25 µM (S. aureus ATCC 12598; [8]): 90.2 ± 2.1%
- inhibition at 25 µM (S. aureus ATCC 12598; [9]): 98.9 ± 0.3%
- MIC (S. aureus ATCC 12598): 10 µM (≈ 3.52 µg/mL)

SMILES: CCCCCCCCc1ccc2ccc(CC(N)(CO)CO)nc2c1 [Compound 82, 2-Amino-2-[(7-octylquinolin-2-yl)methyl]propane-1,3-diol]
- CC50 at 24 h ([1]; A549 cells): 27.5 ± 3 µM
- CC50 at 24 h ([1]; HEp-2 cells): 28.8 ± 1.8 µM
- CC50 at 24 h ([1]; HL-60 cells): 6.5 ± 0.8 µM
- Average inhibition %, biofilms viability (S. aureus P2; 5 µM): 23.7 ± 8.8%
- Average inhibition %, planktonic cells viability (S. aureus P2; 5 µM): 1 ± 1.8%
- Average inhibition %, biofilms viability (S. aureus P2; 10 µM): 99.5 ± 0%
- Average inhibition %, planktonic cells viability (S. aureus P2; 10 µM): 99.8 ± 0%
- Average inhibition %, biofilms viability (S. aureus P2; 15 µM): 99.8 ± 0%
- Average inhibition %, planktonic cells viability (S. aureus P2; 15 µM): 99.6 ± 0%
- Average inhibition %, biofilms viability (S. aureus P2; 25 µM): 99.7 ± 0.1%
- Average inhibition %, planktonic cells viability (S. aureus P2; 25 µM): 99.5 ± 0%
- MIC (S. aureus P2): 10 µM (≈ 3.44 µg/mL)
- inhibition at 5 µM (S. aureus P2; [2]): 39.9 ± 7%
- inhibition at 5 µM (S. aureus P2; [3]): 5 ± 2.2%
- inhibition at 10 µM (S. aureus P2; [4]): 97.6 ± 0.4%
- inhibition at 10 µM (S. aureus P2; [5]): 99.6%
- inhibition at 15 µM (S. aureus P2; [6]): 97.2 ± 0.8%
- inhibition at 15 µM (S. aureus P2; [7]): 99.7%
- inhibition at 25 µM (S. aureus P2; [8]): 96.4 ± 0.6%
- inhibition at 25 µM (S. aureus P2; [9]): 99.4 ± 0.1%
- Average inhibition %, biofilms viability (S. aureus ATCC 12598; 5 µM): 12.2 ± 12.8%
- Average inhibition %, planktonic cells viability (S. aureus ATCC 12598; 5 µM): 13.3 ± 5%
- Average inhibition %, biofilms viability (S. aureus ATCC 12598; 10 µM): 99.1 ± 0.2%
- Average inhibition %, planktonic cells viability (S. aureus ATCC 12598; 10 µM): 99.8 ± 0%
- Average inhibition %, biofilms viability (S. aureus ATCC 12598; 15 µM): 99.5 ± 0%
- Average inhibition %, planktonic cells viability (S. aureus ATCC 12598; 15 µM): 99.7 ± 0%
- Average inhibition %, biofilms viability (S. aureus ATCC 12598; 25 µM): 99.7 ± 0.1%
- Average inhibition %, planktonic cells viability (S. aureus ATCC 12598; 25 µM): 99.6 ± 0.1%
- inhibition at 5 µM (S. aureus ATCC 12598; [2]): 26.3 ± 11.6%
- inhibition at 5 µM (S. aureus ATCC 12598; [3]): 20.6 ± 8.5%
- inhibition at 10 µM (S. aureus ATCC 12598; [4]): 94.4 ± 1.7%
- inhibition at 10 µM (S. aureus ATCC 12598; [5]): 99.6 ± 0.1%
- inhibition at 15 µM (S. aureus ATCC 12598; [6]): 97.1 ± 1.1%
- inhibition at 15 µM (S. aureus ATCC 12598; [7]): 99.7%
- inhibition at 25 µM (S. aureus ATCC 12598; [8]): 94.6 ± 1.4%
- inhibition at 25 µM (S. aureus ATCC 12598; [9]): 99.4 ± 0.2%
- MIC (S. aureus ATCC 12598): 10 µM (≈ 3.44 µg/mL)
